Here are results for nine compounds from patent US6383543B1, “Process for the extraction of an organic salt from plants, the salt, and other similar salts” (RAD Natural Technologies Ltd., priority 1998, dated 2002).

Series [1] in a line: Antioxidant effect in oil in water emulsions containing soybean oil, TBA test at 50° C. The note with it: oil in water emulsion.
Protocol: (a) Oil in water emulsions were prepared from soybean oil (10%), Tween 80 (7%), Span 80 (3%), water (80%) and antioxidant (0.1 or 0.02%).
A short description of series [2]: Antioxidant effect in bulk oil (soybean oil) at 60° C.
Description: A concentrate was first prepared containing 40% lecithin, 40% oil (e.g. soybean oil), 20% propylene glycol and 4% based on the foregoing mixture of 65% (≡2.6% pure) sodium rosmarinate.
Series [3] can be described thus: Antioxidant effect in water in oil emulsions from soybean oil, Rancimat (AOM) test at 100° C. The note with it: water in oil emulsion.
For series [4] the following is noted: yes/no; cited from earlier work.
Series [5] can be described thus: Comparative efficiency: time the antioxidant continues to inhibit oxidation of linoleic acid. Type of series: biochemical. The note with it: time until antioxidant is consumed and rate of change of absorption at 234 nm reverts to control. On the procedure:
The method is based on the rate of oxidation of linoleic acid (LA) to its conjugated diene hydroperoxide (Pryor et al., in J. Org. […] A 1% LA aq. emulsion was prepared with 1% Tween 20 and 0.05M sodium phosphate buffer (pH 7.4). A control sample contained 0.025 ml of the LA emulsion+2.87 ml. of the buffer+0.1 ml 0.05M ABAP; a test sample contained 0.05 ml of the LA emulsion+2.7-2.8 ml of the buffer+0.1 ml 0.05M ABAP+0.05-0.1 ml of the sample under test. Absorption at 234 nm is followed for 5 minutes to establish the uninhibited rate of autoxidation. […] The test antioxidant was added and the inhibited reaction was followed until the antioxidant was consumed and the rate of the absorption change at 234 nm reverted to that observed at the outset.

The next series in a line: Solubility. The series is classed as physicochemical. The note with it: for Solubility: lipid or water; for solubility in acetone: b32: essentially 100% acetone.
A short description of series [6]: Antioxidant effect in emulsions containing β-carotene. The conditions noted are these: over a 100 hour time period; 0.1%. On the procedure: A model emulsion was then prepared by adding double-distilled water (25 ml) to the residue and diluting to 500 ml with phosphate buffer (pH 7.0). […] […] A control sample contained no antioxidant but instead, 95% ethanol (2 ml).

Series [7] in a line: Stabilization of ascorbic acid (50% ethanol, 60° C., 24 hours, HPLC). The conditions noted are these: 10 mg/ml ascorbic acid, after 60° C. The procedure:
The experiment was repeated with the addition of 0.035 mg or 0.07 mg sodium rosmarinate.

Turning to `COc1ccc(O)c(C(C)(C)C)c1` [BHA, butylated hydroxyanisole], the Days until oxidation is 2 days in series [1] (antioxidant 0.02%) and 4 days in series [2] (concentration 0.02%). The compound also gave a Hours until oxidation in series [3] (antioxidant 0.02%) of 9.54 h.

Take `Cc1cc(C(C)(C)C)c(O)c(C(C)(C)C)c1` [BHT, butylated hydroxytoluene]: the Toxicity entry in series [4] is on record as “yes”. In addition, in series [5], the “Efficiency of 10 μg” value was found to be 814 h. Also, in “Solubility”, the Solubility entry was “lipid”.

For the compound `CCCOC(=O)c1cc(O)c(O)c(O)c1` [PG, propyl gallate], the Toxicity result in series [4] is reported as “yes”. Also, the “Efficiency of 10 μg” value in series [5] was found to be 500 h. Besides, the Solubility entry in “Solubility” is reported as “lipid”.

`CC(C)(C)c1cc(O)ccc1O` [TBHQ, tertiary-butylhydroxyquinone]: the Toxicity result in series [4] is recorded as “yes”. Further, the “Efficiency of 10 μg” value in series [5] amounted to 432 h. Also, in “Solubility”, the Solubility entry was “lipid”.

On to `Cc1c(C)c2c(c(C)c1O)CCC(C)(C(=O)O)O2` (stereo not drawn) [Trolox], for which the Toxicity result in series [4] is listed as “no”. For the same compound, the “Efficiency of 10 μg” value in series [5] came out at 650 h. For the same compound, the Solubility result in “Solubility” is reported as “water”.

Take `O=C1O[C@H]([C@@H](O)CO)C(O)=C1O` [Vitamin C, ascorbic acid]: in series [1] (antioxidant 0.1%), the Days until oxidation was determined as 1 days. The “protection of β-carotene” value in series [6] is on record as “little protection”. The compound further showed a Hours until oxidation in series [3] (antioxidant 0.1%) of 25.20 h.

With `O=C(/C=C/c1ccc(O)c(O)c1)OC(Cc1ccc(O)c(O)c1)C(=O)O` (stereo not drawn) [rosmarinic acid], the solubility in acetone entry in the series “Solubility” is recorded as “acetone-soluble”. The entries for the “% ascorbic acid” value in series [7] (+0.035 mg additive) and in series [7] (+0.07 mg additive) were 68% and 90%, respectively.

Regarding `O=C(/C=C/c1ccc(O)c(O)c1)O[C@H](Cc1ccc(O)c(O)c1)C(=O)O` [sodium rosmarinate], the Toxicity entry in series [4] is given as “no”. Moreover, the “Efficiency of 10 μg” value in series [5] is 1413 h. For the same compound, the Days until oxidation in series [2] (concentration 0.005% (as 0.2% of the concentrate)) is 7 days; in series [2] (concentration 0.013% (as 0.5% of the concentrate)), 8 days. For the same compound, the solubility in acetone entry in the series “Solubility” is “virtually acetone-insoluble”. In addition, the Solubility result in “Solubility” was “water”.

Vitamin E: in series [4], the Toxicity entry is on record as “no”. The Days until oxidation turned out to be 1 days in series [1] (antioxidant 0.1%) and 4 days in series [2] (concentration 0.06%). Further, the “Efficiency of 10 μg” value in series [5] stood at 444 h. Moreover, the Solubility result in the series “Solubility” is reported as “lipid”. Further, the Hours until oxidation in series [3] (antioxidant 0.1%) was 9.58 h.
